Experimental data reported in patent US6096930A, “Herbicidal cyclohexane-1,3-dione derivatives and their preparation process” (Korea Research Institute of Chemical Technology, priority 1994, dated 2000).
Read-outs that look alike come from different tables or passages of the source.

Legend:
Experiment in all cases: Herbicidal activity for paddy test
Type in all cases: in vivo
[1] = test system: MOOVA; settings: for pest or weed control at 2 g/ha: 0.002 kg/ha; for pest or weed control at 8 g/ha: 0.008 kg/ha; for pest or weed control at 31 g/ha: 0.031 kg/ha; for pest or weed control at 125 g/ha: 0.125 kg/ha; for pest or weed control at 500 g/ha: 0.500 kg/ha
From the text: (§1) The sterilized sandy loam soil is filled in test pot having a surface area of 348 cm^2 for upland test conditions or 115 cm^2 for paddy test species were planted in furrows.
(§2) The herbicidal activity data were taken visually by percent control, wherein 0 signifies no herbicidal effect and 100 signifies complete kill.

[2] = test system: SAGPY; settings: for pest or weed control at 2 g/ha: 0.002 kg/ha; for pest or weed control at 8 g/ha: 0.008 kg/ha; for pest or weed control at 31 g/ha: 0.031 kg/ha; for pest or weed control at 125 g/ha: 0.125 kg/ha; for pest or weed control at 500 g/ha: 0.500 kg/ha
From the text: as §1, §2

[3] = test system: ECHOR; settings: for pest or weed control at 2 g/ha: 0.002 kg/ha; for pest or weed control at 8 g/ha: 0.008 kg/ha; for pest or weed control at 31 g/ha: 0.031 kg/ha; for pest or weed control at 125 g/ha: 0.125 kg/ha; for pest or weed control at 500 g/ha: 0.500 kg/ha
From the text: as §1, §2

[4] = test system: ORYSA; settings: for plant injury at 2 g/ha: 0.002 kg/ha; for plant injury at 8 g/ha: 0.008 kg/ha; for plant injury at 31 g/ha: 0.031 kg/ha; for plant injury at 125 g/ha: 0.125 kg/ha; for plant injury at 500 g/ha: 0.500 kg/ha
From the text: as §1, §2

[5] = test system: SCPJU; settings: for pest or weed control at 2 g/ha: 0.002 kg/ha; for pest or weed control at 8 g/ha: 0.008 kg/ha; for pest or weed control at 31 g/ha: 0.031 kg/ha; for pest or weed control at 125 g/ha: 0.125 kg/ha; for pest or weed control at 500 g/ha: 0.500 kg/ha
From the text: as §1, §2

[6] = 3 Leaf, read-out: Herbicidal activity, ORYSA (3 Leaf)
[7] = seed, read-out: Herbicidal activity, ORYSA (seed)

Compound	pest or weed control at 2 g/ha [1]	pest or weed control at 8 g/ha [1]	pest or weed control at 31 g/ha [1]	pest or weed control at 125 g/ha [1]	pest or weed control at 500 g/ha [1]	pest or weed control at 2 g/ha [2]	pest or weed control at 8 g/ha [2]	pest or weed control at 31 g/ha [2]	pest or weed control at 125 g/ha [2]	pest or weed control at 500 g/ha [2]	pest or weed control at 2 g/ha [3]	pest or weed control at 8 g/ha [3]	pest or weed control at 31 g/ha [3]	pest or weed control at 125 g/ha [3]	pest or weed control at 500 g/ha [3]	plant injury at 2 g/ha [4, 6]	plant injury at 8 g/ha [4, 6]	plant injury at 31 g/ha [4, 6]	plant injury at 125 g/ha [4, 6]	plant injury at 500 g/ha [4, 6]	also measured
CCC(=NOC)C1=C(O)CC(c2c(C)c(C)c3c(c2C)CC(C)(CC)C3)CC1=O (stereo not drawn) [Compound 11]	0%	0%	0%	30%	50%	0%	0%	0%	0%	0%	0%	30%	70%	100%	100%	0%	0%	0%	30%	80%	plant injury at 2 g/ha [4, 7]: 0%; plant injury at 8 g/ha [4, 7]: 0%; plant injury at 31 g/ha [4, 7]: 30%; plant injury at 125 g/ha [4, 7]: 100%; plant injury at 500 g/ha [4, 7]: 100%; pest or weed control at 2 g/ha [5]: 0%; pest or weed control at 8 g/ha [5]: 0%; pest or weed control at 31 g/ha [5]: 0%; pest or weed control at 125 g/ha [5]: 0%; pest or weed control at 500 g/ha [5]: 0%
CCCC(=NOC)C1=C(O)CC(c2c(C)c(C)c3c(c2C)CC(C)(CC)C3)CC1=O (stereo not drawn) [Compound 16]	0%	0%	30%	50%	50%	0%	0%	0%	0%	30%	0%	30%	70%	100%	100%	0%	0%	0%	0%	30%	plant injury at 2 g/ha [4, 7]: 0%; plant injury at 8 g/ha [4, 7]: 0%; plant injury at 31 g/ha [4, 7]: 30%; plant injury at 125 g/ha [4, 7]: 100%; plant injury at 500 g/ha [4, 7]: 100%; pest or weed control at 2 g/ha [5]: 0%; pest or weed control at 8 g/ha [5]: 0%; pest or weed control at 31 g/ha [5]: 0%; pest or weed control at 125 g/ha [5]: 0%; pest or weed control at 500 g/ha [5]: 0%
CCC(=NOCC=CCl)C1=C(O)CC(c2c(C)c(C)c3c(c2C)CC(C)(CC)C3)CC1=O (stereo not drawn) [Compound 14]	0%	0%	0%	30%	100%	0%	0%	0%	0%	30%	30%	70%	100%	100%	100%	0%	0%	0%	0%	40%	plant injury at 2 g/ha [4, 7]: 0%; plant injury at 8 g/ha [4, 7]: 0%; plant injury at 31 g/ha [4, 7]: 0%; plant injury at 125 g/ha [4, 7]: 40%; plant injury at 500 g/ha [4, 7]: 100%; pest or weed control at 2 g/ha [5]: 0%; pest or weed control at 8 g/ha [5]: 0%; pest or weed control at 31 g/ha [5]: 0%; pest or weed control at 125 g/ha [5]: 30%; pest or weed control at 500 g/ha [5]: 90%
CCC(=NOCC=CCl)C1=C(O)CC(c2c(C)c(C)c3c(c2C)CC(C)(C)C3)CC1=O (stereo not drawn) [Compound 4]	0%	0%	0%	0%	0%	0%	0%	0%	0%	50%	0%	100%	100%	100%	100%	0%	0%	0%	10%	40%	plant injury at 2 g/ha [4, 7]: 0%; plant injury at 8 g/ha [4, 7]: 0%; plant injury at 31 g/ha [4, 7]: 100%; plant injury at 125 g/ha [4, 7]: 100%; plant injury at 500 g/ha [4, 7]: 100%; pest or weed control at 2 g/ha [5]: 0%; pest or weed control at 8 g/ha [5]: 0%; pest or weed control at 31 g/ha [5]: 0%; pest or weed control at 125 g/ha [5]: 0%; pest or weed control at 500 g/ha [5]: 0%
CCON=C(CC)C1=C(O)CC(c2c(C)c(C)c3c(c2Cl)CC(C)(C)C3)CC1=O (stereo not drawn) [Compound 39]	0%	0%	0%	0%	0%	0%	0%	0%	0%	0%	0%	80%	100%	100%	100%	0%	0%	0%	0%	80%	plant injury at 2 g/ha [4, 7]: 0%; plant injury at 8 g/ha [4, 7]: 0%; plant injury at 31 g/ha [4, 7]: 100%; plant injury at 125 g/ha [4, 7]: 100%; plant injury at 500 g/ha [4, 7]: 100%; pest or weed control at 2 g/ha [5]: 0%; pest or weed control at 8 g/ha [5]: 0%; pest or weed control at 31 g/ha [5]: 0%; pest or weed control at 125 g/ha [5]: 0%; pest or weed control at 500 g/ha [5]: 0%
CCCC(=NOCC)C1=C(O)CC(c2c(C)c(C)c3c(c2C)CC(C)(C)C3)CC1=O (stereo not drawn) [Compound 7]	0%	0%	0%	0%	0%	0%	0%	0%	0%	40%	95%	95%	100%	100%	100%	0%	0%	0%	20%	65%	plant injury at 2 g/ha [4, 7]: 0%; plant injury at 8 g/ha [4, 7]: 20%; plant injury at 31 g/ha [4, 7]: 100%; plant injury at 125 g/ha [4, 7]: 100%; plant injury at 500 g/ha [4, 7]: 100%; pest or weed control at 2 g/ha [5]: 0%; pest or weed control at 8 g/ha [5]: 0%; pest or weed control at 31 g/ha [5]: 0%; pest or weed control at 125 g/ha [5]: 0%; pest or weed control at 500 g/ha [5]: 0%
CCC(=NOC)C1=C(O)CC(c2c(C)c(C)c3c(c2Cl)CC(C)(C)C3)CC1=O (stereo not drawn) [Compound 38]	0%	0%	0%	0%	0%	0%	0%	0%	0%	0%	0%	95%	100%	100%	100%	0%	0%	0%	50%	100%	plant injury at 2 g/ha [4, 7]: 0%; plant injury at 8 g/ha [4, 7]: 20%; plant injury at 31 g/ha [4, 7]: 100%; plant injury at 125 g/ha [4, 7]: 100%; plant injury at 500 g/ha [4, 7]: 100%; pest or weed control at 2 g/ha [5]: 0%; pest or weed control at 8 g/ha [5]: 0%; pest or weed control at 31 g/ha [5]: 0%; pest or weed control at 125 g/ha [5]: 0%; pest or weed control at 500 g/ha [5]: 0%
C=C(Cl)CON=C(CC)C1=C(O)CC(c2c(C)c(C)c3c(c2C)CC(C)(CC)C3)CC1=O (stereo not drawn) [Compound 15]	0%	0%	0%	0%	30%	0%	0%	0%	0%	0%	0%	30%	30%	100%	100%	0%	0%	0%	0%	30%	plant injury at 2 g/ha [4, 7]: 0%; plant injury at 8 g/ha [4, 7]: 0%; plant injury at 31 g/ha [4, 7]: 0%; plant injury at 125 g/ha [4, 7]: 40%; plant injury at 500 g/ha [4, 7]: 100%; pest or weed control at 2 g/ha [5]: 0%; pest or weed control at 8 g/ha [5]: 0%; pest or weed control at 31 g/ha [5]: 0%; pest or weed control at 125 g/ha [5]: 0%; pest or weed control at 500 g/ha [5]: 0%
